Measured values: article PMC12505902, “Inhibitors of trehalose-6-phosphate synthase activity in fungal pathogens compromise thermal tolerance pathways” (mBio, 2025)
≈ marks a conversion by molar mass, not a printed value. Where two headings read alike, the source gives them in different places.

How the values were obtained:
C. neoformans [1] = test system: C. neoformans; set-up: method as in earlier work; conditions: Supplemental Table 5; ref (13); cited from earlier work
C. albicans = conditions: Supplemental Table 5, cited from earlier work
[2] = set-up: method as in PMID 27248439; conditions: ref [12]; cited from earlier work
C. neoformans [3] = test system: C. neoformans; set-up: method as in PMID 27248439; conditions: ref [12]; cited from earlier work
Cryptococcus gattii = test system: Cryptococcus gattii; set-up: method as in PMID 27248439; conditions: ref [12]; cited from earlier work
6xHis-CaTps1 [4] = target: T1, 6xHis-CaTps1 (Candida albicans, UniProt Q92410); test: Spectrophotometric-coupled Tps1 enzyme activity assay; type: biochemical, C. albicans; conditions: compounds diluted in DMSO, normalized to the DMSO control
T1 construct: Briefly, the full-length; thrombin cleavage site (pET-28a linker) (N); made in house; host or cells: E. coli BL21(DE3)pLysS
T1 sequence (Q92410 1-478): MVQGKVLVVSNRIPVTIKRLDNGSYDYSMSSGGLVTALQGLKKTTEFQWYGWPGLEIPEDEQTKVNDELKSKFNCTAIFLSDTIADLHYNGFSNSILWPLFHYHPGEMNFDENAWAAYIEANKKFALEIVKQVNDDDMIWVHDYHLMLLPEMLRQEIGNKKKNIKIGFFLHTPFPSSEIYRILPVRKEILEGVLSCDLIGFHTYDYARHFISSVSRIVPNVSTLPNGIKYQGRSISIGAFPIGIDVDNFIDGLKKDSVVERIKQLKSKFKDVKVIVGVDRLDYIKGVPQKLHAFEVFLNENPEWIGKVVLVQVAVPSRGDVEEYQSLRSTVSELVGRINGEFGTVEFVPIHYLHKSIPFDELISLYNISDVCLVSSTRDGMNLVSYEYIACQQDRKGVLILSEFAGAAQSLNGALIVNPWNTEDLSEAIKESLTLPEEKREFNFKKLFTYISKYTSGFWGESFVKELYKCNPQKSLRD
Experimental: Fig 2 4456dh binds Tps1 and inhibits Tps1 activity. (A) Structure of 4456dh. (B and C) Glo-melt thermal shift assays reveal 4456dh destabilizes 6xHis-CaTps1 (B) and 6xHis-CnTps1 (C). The first derivative of the raw data was used to determine the melting temperature of 1 µM 6xHis-CaTps1 (B) and 1 µM 6xHis-CnTps1 (C) treated without (black) or with 2 mM 4456dh (red). […] The resulting dose-response curves were fitted to a one-site binding model to extract Kd values; the SD was calculated using the Kd values from each independent experiment (n = 3). (F) Tps1 enzyme activity assay with 5 µM 6xHis-CaTps1 (F) and 6xHis-CnTps1 (G) ±1 mM 4456dh. Error bars represent SE. […]
The ability of 4456dh to inhibit the activity of CaTps1 was tested using a spectrophotometric-coupled Tps1 enzyme assay, in which recombinant 6xHis-CaTps1 was incubated with 1 mM 4456dh at 4°C for 16 hours. […] Similarly, the effect of 1 mM 4456dh on 6xHis-CnTps1 activity was determined. […]
82 determined by SDS-PAGE analysis, were pooled and concentrated to 1 mg/mL for downstream […]
93 The data were acquired with MO.Control 1.5.3 (NanoTemper Technologies GmbH). Recorded
94 data were analyzed with MO.Affinity Analysis 2.2.7 (NanoTemper Technologies GmbH). […]
100 2X Glo-melt dye. Thermal denaturation was measured using an RT-PCR thermocycler (BioRad) […]
102 determined by identifying the inflection point of the derivative data. […]

6xHis-CaTps1 [5] = target: T1, 6xHis-CaTps1; test: UDP Transcreener FP assay, primary screen of the 3PP library; type: biochemical; conditions: for inhibition at 500 µM: read-out: CaTps1 FP (% inhibition)
Excerpt: As the first step of the trehalose biosynthesis pathway, Tps1 synthesizes T6P from the substrates UDP-glucose and G6P, followed by the release of UDP and T6P ([16]). To identify a small molecule inhibitor of Tps1 activity, we adapted an HTS utilizing the UDP Transcreener FP assay ([33], [34]). The FP assay detects the UDP released as a result of the Tps1-mediated enzymatic reaction (Fig. 1A). The FP assay Z’ factor, which describes the suitability of an assay for an HTS, is 0.87, indicating an ideal signal-to-noise ratio (Fig. S1A) ([35]). There was a greater than 175 millipolarization (mP) shift between the positive control novobiocin, an inhibitor with activity against a bacterial trehalose-P-synthase, and the negative control dimethyl sulfoxide (DMSO) (Fig. S1A) ([36]). Recombinant Tps1 from C. albicans, hereafter referred to as CaTps1, was expressed in E. coli and purified via an N-terminal 6xHis-tag and Ni^2-NTA affinity chromatography, followed by size exclusion chromatography (Fig. 1B). A 3-point pharmacophore (3PP) library, which consisted of a subset of 750 compounds of less than 300 Da in molecular mass from the St. Jude Children’s Research Hospital chemical library, was screened for the ability to inhibit 6xHis-CaTps1 activity ([37]). In the primary screen, 32 (4.3 %) compounds that inhibited the activity of 6xHis-CaTps1 by more than 10% at 500 µM concentration were identified (Fig. 1C and D). A 10% cutoff provided a significant number of hits to validate using a dose response assay (Fig. S1B). At the completion of the screen, seven compounds that inhibit the activity of CaTps1 in a dose-dependent manner were selected for further investigation (Fig. 1E; Table 1).
The glycosyltransferase activity of 6xHis-CaTps1, which results in the release of UDP, was measured using the UDP Transcreener FP assay (BellBrook Labs #3018, Madison, WI). The St. Jude Children’s Hospital (Memphis, TN) 3PP library was screened ([37]). Assays were performed at 37°C for 60 minutes in a 384-well plate using 5 µM 6xHis-CaTps1 in assay buffer containing 50 mM Tris-HCl pH 7.5, 300 mM NaCl, 10 mM MgCl2, and 1 mM dithiothreitol (DTT). Fluorescence polarization was detected using a BMG Labtech plate reader. Each assay plate contained the following additional control wells: (i) no antibody control, (ii) DMSO vehicle control, (iii) novobiocin positive control, and (iv) novobiocin dose-response. Screens were performed by the addition of single-point additions of test molecules to the above assay. The Z’ factor was calculated according to guidelines by Zhang et al., with a Z-factor of 0.5 and 1.0 indicating an excellent assay ([35]).

[6] = primary screen, 500 µM compound, 5 µM 6xHis-CaTps1, 37°C 60 minutes

In the case of C[C@@H]1[C@H](O)[C@@H](C)/C=C/C=C/C=C/C=C/C=C/C=C/C=C/[C@H](O[C@@H]2O[C@H](C)[C@@H](O)[C@H](N)[C@@H]2O)C[C@@H]2O[C@](O)(C[C@@H](O)C[C@@H](O)[C@H](O)CC[C@@H](O)C[C@@H](O)CC(=O)O[C@H]1C)C[C@H](O)[C@H]2C(=O)O [Amphotericin B], the “MIC80” value (C. neoformans [1]) is listed as 2 µg/mL (≈ 2.16 µM).

For CC[C@H](C)C[C@H](C)CCCCCCCCC(=O)N[C@H]1C[C@@H](O)[C@@H](NCCN)NC(=O)[C@@H]2[C@@H](O)CCN2C(=O)[C@H]([C@H](O)CCN)NC(=O)[C@H]([C@H](O)[C@@H](O)c2ccc(O)cc2)NC(=O)[C@@H]2C[C@@H](O)CN2C(=O)[C@H]([C@@H](C)O)NC1=O [Caspofungin], the “MIC80” value (C. albicans; ref (12)) is listed as 1 µg/mL (≈ 0.915 µM).

For Cc1cc(C(C#N)c2ccc(Cl)cc2)c(Cl)cc1NC(=O)c1cc(I)cc(I)c1O (centres unmarked) [Closantel], the “antifungal activity in murine models” value [2] is listed as “does not have antifungal activity”, the activity in vitro (C. neoformans [3]) is listed as “potent activity” and the activity in vitro (Cryptococcus gattii) is listed as “potent activity”.

For Cn1cc(-c2csc(NC(=O)Cc3ccccn3)n2)cn1 [Compound 4456], the “effect of SJ6675 derivatives on CaTps1 activity” value (6xHis-CaTps1 [4]) was “significantly inhibited the activity of CaTps1”.

In the case of OC(Cn1cncn1)(Cn1cncn1)c1ccc(F)cc1F [Fluconazole], the “MIC80” value (C. albicans; ref (11)) is listed as 1.84 µg/mL (≈ 6.01 µM).

In the case of Nc1[nH]c(=O)ncc1F [Flucytosine], the “MIC80” value (C. neoformans [1]) is listed as 8 µg/mL (≈ 62 µM).

Molecule N#CCC(=O)c1ccco1 [SJ000805629-1] has an inhibition at 500 µM (6xHis-CaTps1 [5]; [6]) of 32.2%.

CN(C)C(C#N)c1ccccc1Cl (centres unmarked) [SJ000866063-1] showed an inhibition at 500 µM (6xHis-CaTps1 [5]) of 19%.

For CC(Cc1ccoc1)NS(C)(=O)=O (centres unmarked) [SJ000866077-1], the inhibition at 500 µM (6xHis-CaTps1 [5]; [6]) was 11.1%.

CN(C)C(C#N)c1c(F)cccc1Cl (centres unmarked) [SJ000866107-1] gave an inhibition at 500 µM (6xHis-CaTps1 [5]) of 18.2%.

Work on CN1CCc2c(sc(N)c2C#N)C1 [SJ000866390-1] yielded an inhibition at 500 µM (6xHis-CaTps1 [5]; [6]) of 36.4%.

With O=C(C1CC1)N1CCCNCC1 [SJ000866536-1] the inhibition at 500 µM (6xHis-CaTps1 [5]; [6]) was 18.6%.

Work on Nc1nc(-c2ccoc2)cs1 [SJ000866675-1, [4-furan-3-yl]thiazol-2-amine] yielded an inhibition at 500 µM (6xHis-CaTps1 [5]; [6]) of 13.7%.

In the case of C[C@@H](c1ncncc1F)[C@](O)(Cn1cncn1)c1ccc(F)cc1F [Voriconazole], the “MIC80” value (C. albicans; ref (11)) is listed as 0.06 µg/mL (≈ 0.172 µM).

With CO[C@@H]1[C@@H](OC(N)=O)[C@@H](O)[C@H](Oc2ccc3c(O)c(NC(=O)c4ccc(O)c(CC=C(C)C)c4)c(=O)oc3c2C)OC1(C)C [novobiocin, reference compound] the “millipolarization (mP) shift between positive control and DMSO” value (6xHis-CaTps1 [5]; positive control versus negative control DMSO) was “greater than 175 mP”.
